Data taken from patent US9890195B2, “MK2 inhibitor compositions and methods to enhance neurite outgrowth, neuroprotection, and nerve regeneration” (Purdue Research Foundation, priority 2009, dated 2018).
Where no end group is shown, it is not given here.

System: mixed cortical cultures comprising neurons, astrocytes, and microglia
Experiment: Immunocytochemistry/cell imaging of mixed cortical cultures treated with MK2i and TNF-α
Assay type: cell-based, Sprague-Dawley rat
Conditions: for morphological effects on neurons, astrocytes, microglia (FIG. 3): no TNF-α
Method: The effect of MK2i on neuronal cell death and microglical activation was investigated by treating 1-week old mixed cortical cultures comprising neurons, astrocytes, and microglia with the MK2i peptide […] [SEQ ID NO: 33]. Primary Cortical Cell Culture
Embryonic rat cortical tissue was obtained immediately following removal of embryos from the rat's abdomen. E17 Sprague-Dawley rat cortical tissue was placed in a 50 ml conical tube containing 5 ml of Solution 1 (NaCl 7.24 g/L; KCl 0.4 g/L; NaH2PO4 0.14 g/L; Glucose 2.61 g/L; Hepes 5.96 g/L; MgSO4 0.295 g/L; Bovine Serum Albumin 3 g/L). Under sterile conditions, 18 μl of trypsin solution (7.5 mg/ml in 0.9% saline) was added and tissue was passed through a 5-ml pipet several times to disassociate tissue. After the conical tube was placed in a 37° C. water bath for 20 minutes, 100 μl of trypsin inhibitor/DNAse solution (2.5 mg/ml trypsin inhibitor, 400 μg/ml DNase in 0.9% saline) was added to the tube and tissue was pipetted several times with a 5-ml pipet. Tissue was centrifuged at 1,000 rpm for 5 minutes at room temperature and supernatant was poured off. Cells were re-suspended in 16 ml of Hibernate E (BrainBits, Springfield, Ill.) and 100 μl of trypsin inhibitor/DNAse solution and pipetted up and down several times. Cells were filtered through a cell strainer and centrifuged at 1,400 rpm for 5 minutes at room temperature. Supernatant was poured off and cells were re-suspended in media. Primary cells were then plated in poly-D-lysine coated 96-well plates at a seeding density of 625,000 cells/cm^2 and incubated for 7-9 days at 37° C. After 7-9 days, cortical cells were treated with 5 ng/ml or 10 ng/ml of TNF-α to activate microglia. Cells then were treated with 0, 0.5, 1, or 3 mM MK2i peptide […] [SEQ ID NO: 33] for 4 hours, 8 hours, and 24 hours. After treatment, media was removed and stored at −20° C.
In preparation for staining mixed cortical cells, cell media was replaced with phosphate-buffered 4% formaldehyde solution for 5 minutes, followed by three washes using HBHS solution (HEPES-buffered Hank's saline containing 10 mg/L sodium azide, pH 7.4). Blocking solution, consisting of 10% normal goat serum in HBHS, then was applied for 30 minutes, followed by three washes with HBHS. Microglia, astrocytes, and neurons were labeled using antibodies against ionized calcium binding adaptor molecule 1 (Iba1, Wako), glial fibrillary acidic protein (GFAP, Millipore), and β-3-tubulin (β3tub, Covance), respectively. Antibodies were applied for 2 hours, at a dilution of 1:400 in HBHS. After two 10 minute washes and one 30 minute wash, secondary antibodies were applied. […]

In the case of YARAAARQARAKALARQLGVAA-NH2 [MK2i], the “suppression of TNF-α-induced neuronal cell damage (FIG. 4)” value (5 ng/ml and 10 ng/ml TNF-α, 3 mM MK2i, which also resulted in neuronal cell damage) is reported as “not maintained”, the “morphological effects on neurons, astrocytes, microglia (FIG. 3)” value (0.5 mM and 1.0 mM MK2i (below 3 mM)) is reported as “Minimal morphological effects” and the “astrocyte damage (FIG. 6)” value (3 mM MK2i) is reported as “damage to astrocytes”. The “morphological effects on neurons, astrocytes, microglia (FIG. 3)” value (3 mM MK2i) was “increased neuronal and astrocytic cell damage, as well as microglial proliferation”.
